Biological target: T1, NPSR1 (Homo sapiens, UniProt Q6W5P4)
T1 construct: purchased Promega (in-house HiBiT-GPCR construct library, NanoBRET)
T1 sequence (Q6W5P4 1-371): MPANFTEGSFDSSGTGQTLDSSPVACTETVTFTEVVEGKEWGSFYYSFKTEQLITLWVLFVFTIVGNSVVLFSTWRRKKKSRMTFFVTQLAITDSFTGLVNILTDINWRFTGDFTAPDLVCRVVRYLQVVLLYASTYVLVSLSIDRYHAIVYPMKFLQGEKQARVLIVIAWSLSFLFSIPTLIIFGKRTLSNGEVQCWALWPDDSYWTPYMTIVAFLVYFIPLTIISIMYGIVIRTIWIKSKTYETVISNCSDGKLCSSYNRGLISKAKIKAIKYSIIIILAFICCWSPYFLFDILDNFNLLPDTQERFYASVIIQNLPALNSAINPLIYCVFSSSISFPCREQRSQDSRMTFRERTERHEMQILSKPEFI
Experiment: NanoBRET screen HiBiT-NPSR1 in HEK293
Format: binding
Experimental: Each tracer candidate was screened across the entire library of HiBiT-GPCR constructs using NanoBRET as the detection modality. As depicted in Figure 4A, the specificity of interactions was evaluated through decrease in BRET due to competitive displacement of a bound tracer by excess parental compound. Each tracer was analyzed for binding to each HiBiT-GPCR fusion in the absence and in the presence of competing parental compound. Briefly, HEK293 cells were transfected with HiBiT-GPCR constructs diluted into promoterless DNA to reduce expression and maximize translocation to the cell surface. Each tracer candidate was then screened at concentrations of 1 μM and 0.1 μM across cells expressing these fusions. Cells were treated for 1.5 h with tracer either alone or in the presence of 20 μM competing parental compound (i.e., control). BRET was measured upon addition of purified LgBiT and subsequent complementation with HiBiT genetically fused to a GPCR. The specificity of interactions was assessed through a decrease in BRET signal due to competitive displacement of the bound tracer. To further gauge the robustness of these interactions, the fold response over the control (i.e., BRETtracer/BRETcontrol) was calculated. We chose a 1.5-fold response, which translates to ≥7-fold signal over noise as the minimal threshold required to score an interaction as positive.
HiBiT-GPCR DNA constructs were diluted in 10 mM Tris pH 8 to a final concentration of 0.01 μg/μL, arrayed in 96-well plates and stored at −20 °C. For transfection, HEK293 cells were suspended in Opti-MEM (without phenol red) supplemented with 2% fetal bovine serum (Seradigm) and 100 units/mL penicillin–streptomycin (Gibco) at a final concentration of 220,000 cells/mL and dispensed into white 96-well plates at 90 μL/well. Subsequent transfections and screens were carried using an Agilent Bravo Automated Liquid Handling Platform. First, the 96-well HiBiT DNA arrays were diluted 25-fold in Opti-MEM (without serum or phenol red) to a final concentration of 0.0004 μg/μL and 20 μL of the diluted DNAs were transferred into new 96-well plates. Next, promoterless carrier DNA (1 μg/μL) was diluted 25-fold (0.04 μg/μL) and then dispensed into the diluted arrays at 20 μL/well. Following brief mixing, Viafect transfection reagent (Promega) diluted 16-fold into Opti-MEM was dispensed into the plates at 40 μL/well. After mixing by pipetting, plates were incubated for 10 min on the pipetting station deck. The DNA-transfection reagent complexes were then added to plates containing cells. To facilitate the screen, 10 μL of DNA-transfection reagent complexes were added in duplicates to the top 4 and bottom 4 rows, resulting in two identical 48-well arrays per plate. Plates with transfected cells were incubated for 18–20 h at 37 °C/5% CO2. A screen of each tracer across the entire library using two different concentrations requires duplicate plates of transfected cells. Depending on the number of tracers being screened, transfections can be scaled up using the same ratios. The next day, for each tracer, four 20× screening solutions in tracer dilution buffer (Promega) were prepared: two duplicates at final concentration of 20 μM and two duplicates at a final concentration of 2 μM. […] The four resulting solutions were diluted 4-fold in Opti-MEM without serum or phenol red to generate 5× solutions (5 µM and 0.5 µM tracer +/− 100 μM competing compound). To screen the library, a BioTek MultiFlo FX liquid dispenser was used to dispense 22.5 µL of tracer solution to the top 4 rows and 22.5 µL tracer + competing compound solution to the 4 bottom rows. Plates were briefly mixed on an orbital shaker and incubated for 1.5 h at room temperature. […] Plates were briefly mixed on an orbital shaker and incubated for 15 min to allow complementation.

Row | Compound | NanoBRET Fold Response (NPSR1, tracer 0.1μM) | NanoBRET Fold Response (NPSR1, tracer 1μM) | also measured
1 | CCOC(=O)c1cc(C#N)c(N2CCC(C(=O)NS(=O)(=O)Cc3ccccc3/C=C/C(=O)NCCNC(=O)CCc3ccc4n3[B-](F)(F)[N+]3=C(c5ccc[nH]5)C=CC3=C4)CC2)nc1C [AZD1283-1-NB590] |  |  | NanoBRET Fold Response (NPSR1, 0.1μM): 1.02; NanoBRET Fold Response (NPSR1, 1μM): 1.06
2 | N#CN=C(NCCCOc1cccc(CN2CCCCC2)c1)NCCNC(=O)CCOCCOCCOCCOCCNC(=O)CCc1ccc2n1[B-](F)(F)[N+]1=C(c3ccc[nH]3)C=CC1=C2 [Aminopotentidine-2-NB590] | 0.99 | 1.01 | 
3 | CN(C)CCC=C1c2ccccc2CCc2ccc(C(=O)NCCNC(=O)CCOCCOCCOCCOCCNC(=O)CCc3ccc4n3[B-](F)(F)[N+]3=C(c5ccc[nH]5)C=CC3=C4)cc21 [Amitriptyline-a-2-NB590] |  |  | NanoBRET Fold Response (tracer at 0.1μM): 1.01; NanoBRET Fold Response (tracer at 1μM): 0.99
4 | CN(C)CCC=C1c2ccccc2CCc2ccc(C(=O)NCCNC(=O)CCOCCOCCOCCOCCNC(=O)CCc3ccc4n3[B-](F)(F)[N+]3=C(c5ccc[nH]5)C=CC3=C4)cc21 [Amitriptyline-b-2-NB590] |  |  | NanoBRET Fold Response (tracer at 0.1μM, listed as amitriptyline-b-2-NB590): 0.95; NanoBRET Fold Response (tracer at 1μM, listed as amitriptyline-b-2-NB590): 1.15
5 | COc1ccc2c(n1)c(CCNC(C)=O)cn2CCNC(=O)CCc1ccc2n1[B-](F)(F)[N+]1=C(c3ccc[nH]3)C=CC1=C2 [Azamelatonin-1-NB590] |  |  | NanoBRET Fold Response (0.1μM tracer): 0.96; NanoBRET Fold Response (1μM tracer): 0.84
6 | COc1ccc2[nH]c(-c3ccc(CNC(=O)CCOCCOCCOCCOCCNC(=O)CCc4ccc5n4[B-](F)(F)[N+]4=C(c6ccc[nH]6)C=CC4=C5)cc3)c(CCNC(C)=O)c2n1 [AzomelatoninICO9-2-NB590] |  |  | NanoBRET Fold Response (0.1μM tracer): 0.98; NanoBRET Fold Response (1μM tracer): 0.96
7 | O=C(CCOCCOCCOCCOCCNC(=O)CCc1ccc2n1[B-](F)(F)[N+]1=C(c3ccc[nH]3)C=CC1=C2)NCCCN1CCN(C2=Nc3cc(Cl)ccc3Nc3ccccc32)CC1 [Clozapine-a-2-NB590] |  |  | NanoBRET Fold Response (NPSR1, 0.1μM tracer): 0.93; NanoBRET Fold Response (NPSR1, 1μM tracer): 1.15
8 | CN1CCN(C2=Nc3cc(Cl)ccc3Nc3ccc(CNC(=O)CCOCCOCCOCCOCCNC(=O)CCc4ccc5n4[B-](F)(F)[N+]4=C(c6ccc[nH]6)C=CC4=C5)cc32)CC1 [Clozapine-b-2-NB590] |  |  | NanoBRET Fold Response (NPSR1, 0.1μM tracer): 1.05; NanoBRET Fold Response (NPSR1, 1μM tracer): 0.98
9 | CN1CCN(C2=Nc3cc(Cl)ccc3N(CC(=O)NCCOCCOCCOCCOCCNC(=O)CCc3ccc4n3[B-](F)(F)[N+]3=C(c5ccc[nH]5)C=CC3=C4)c3ccccc32)CC1 [Clozapine-c-2-NB590] |  |  | NanoBRET Fold Response (NPSR1, 0.1μM tracer): 1.02; NanoBRET Fold Response (NPSR1, 1μM tracer): 1.02
10 | O=C(CCOCCOCCOCCOCCNC(=O)CCc1ccc2n1[B-](F)(F)[N+]1=C(c3ccc[nH]3)C=CC1=C2)NCCCN1CCN(C2=Nc3ccccc3Oc3ccc(Cl)cc32)CC1 [Loxapine-a-2-NB590] | 0.98 | 1.04 | 
11 | COc1ccccc1N1CCN(CCCCN2C(=O)c3ccc(CNC(=O)CCOCCOCCOCCOCCNC(=O)CCc4ccc5n4[B-](F)(F)[N+]4=C(c6ccc[nH]6)C=CC4=C5)cc3C2=O)CC1 [NAN-190-2-NB590] | 0.90 | 0.93 | 
12 | COc1ccccc1N1CCN(CCCCN2C(=O)c3ccc(CNC(=O)CCOCCNC(=O)c4ccc(CNC(=O)CCc5ccc6n5[B-](F)(F)[N+]5=C(c7ccc[nH]7)C=CC5=C6)cc4)cc3C2=O)CC1 [NAN-190-3-NB590] | 1.10 | 1.17 | 
13 | O=C(CCc1ccc2n1[B-](F)(F)[N+]1=C(c3ccc[nH]3)C=CC1=C2)NCc1ccc(C(=O)NCCOCCC(=O)N[C@@H]2CC[C@@]3(O)[C@H]4Cc5ccc(O)c6c5[C@@]3(CCN4CC3CC3)[C@H]2O6)cc1 [Naltrexone-3-NB590] | 1.12 | 0.92 | 
14 | Cc1cc2c(s1)Nc1ccccc1N=C2N1CCN(CCCNC(=O)CCOCCOCCOCCOCCNC(=O)CCc2ccc3n2[B-](F)(F)[N+]2=C(c4ccc[nH]4)C=CC2=C3)CC1 [Olanzapine-a-2-NB590] | 1.01 | 1.17 | 
15 | O=C(CCc1ccc2n1[B-](F)(F)[N+]1=C(c3ccc[nH]3)C=CC1=C2)NCc1ccc(C(=O)NCCOCCOCCNCC(O)COc2cccc3ccccc23)cc1 (stereo not drawn) [Propranolol-3-NB590] |  |  | NanoBRET Fold Response (NPSR1, 0.1μM): 1.00; NanoBRET Fold Response (NPSR1, 1μM): 0.98
16 | O=C(CCc1ccc2n1[B-](F)(F)[N+]1=C(c3ccc[nH]3)C=CC1=C2)NCCOCCOCCNC(=O)OCCOCCN1CCN(C2=Nc3ccccc3Sc3ccccc32)CC1 [Quetiapine-a-2-NB590] | 0.87 | 0.90 | 
17 | Cc1nc2n(c(=O)c1CCN1CCC(c3noc4cc(F)ccc34)CC1)CCCC2OC(=O)NCCOCCOCCOCCOCCNC(=O)CCc1ccc2n1[B-](F)(F)[N+]1=C(c3ccc[nH]3)C=CC1=C2 (stereo not drawn) [Risperidone-2-NB590] | 1.00 | 0.90 | 
18 | CC(C)N(CC[C@H](c1ccccc1)c1cc(CCNC(=O)CCOCCOCCOCCOCCNC(=O)CCc2ccc3n2[B-](F)(F)[N+]2=C(c4ccc[nH]4)C=CC2=C3)ccc1O)C(C)C [Tolterodine-2-NB590] |  | 1.34 | 
19 | CC(C)N(CC[C@H](c1ccccc1)c1cc(CCNC(=O)c2ccc(CNC(=O)CCc3ccc4n3[B-](F)(F)[N+]3=C(c5ccc[nH]5)C=CC3=C4)cc2)ccc1O)C(C)C [Tolterodine-BZ-NB590] | 1.12 | 0.99 | 
20 | CCCn1c(=O)c2[nH]c(-c3ccc(OCC(=O)NCCNC(=O)CCOCCNC(=O)c4ccc(CNC(=O)CCc5ccc6n5[B-](F)(F)[N+]5=C(c7ccc[nH]7)C=CC5=C6)cc4)cc3)nc2n(CCC)c1=O [XAC-3-NB590] | 0.90 | 0.92 | 
